What all share (format): cell-based
Assay [1] deals with EGFR(D770_N771insSVD) expressing Ba/F3 stable cell line (Homo sapiens, UniProt P00533, DUP768-770, cells depend on it). As to the kind of experiment: Cellular proliferation (Alamar Blue) assay, EGFR D770_N771insSVD Ba/F3. The settings on record: 72 hr, read-out: D770 IC50. As for the experimental part:
(§1) • 1. EGFR(D770_N771insSVD) expressing Ba/F3 stable cell line • 2. EGFR (A767_dupASV) expressing Ba/F3 stable cell line • 3. A431 cells • 4. EGFR (H773insNPH) expressing Ba/F3 stable cell line • 5. HER2 (A775_G776insYVMA) expressing Ba/F3 stable cell line Assay Procedure: • 1. Seed cells at 5000 for A431 and 15,000 cells for Ba/F3 in 100 μL/well in complete media (for A431: DMEM with […] and for Ba/F3 cells: RPMI with 10% FBS) in 96-well tissue culture plate. Leave outer wells without cells for background measurements. Incubate at 37 degree Celsius in […] humidified incubator for 16-18 hours. • 2. Add 0.025 ml of 5× concentration compound dilution or DMSO control. Final compound concentration range is 10-0.0005 μM prepared in 3-fold serial dilutions. Incubate for 72 hr at 37 degree Celsius in […] humidified incubator. • 3. Add 0.0125 ml Alamar Blue™ reagent to each well with multi-channel pipette and tap gently on each side of the plate to mix. Incubate for 3 hours at 37 degree Celsius in 5% CO2 humidified incubator. • 4. […] Data analysis was performed using XLfit 5.5.0.5.
A general note: The colour change of resazurin is a common sign of viable cells or microbes.

Assay [2] deals with EGFR (A767_dupASV) expressing Ba/F3 stable cell line (Homo sapiens, UniProt P00533, DUP767-769, cells depend on it). Description: Cellular proliferation (Alamar Blue) assay, EGFR A767_dupASV Ba/F3. The settings on record: 72 hr, read-out: A767 IC50. As for the experimental part: as §1
For the next assay, the system named is A431 cells. As to the kind of experiment: Cellular proliferation (Alamar Blue) assay, A431. The settings on record: Homo sapiens, A-431; A431 cells, Alamar Blue, 72 hr; read-out: A431 IC50. As for the experimental part:
as §1

Where a name gives a salt, the structure may show the parent alone.

EGFR(D770_N771insSVD) expressing Ba/F3 stable cell line, sequence (P00533 with tags, fused parts or gaps DUP768-770): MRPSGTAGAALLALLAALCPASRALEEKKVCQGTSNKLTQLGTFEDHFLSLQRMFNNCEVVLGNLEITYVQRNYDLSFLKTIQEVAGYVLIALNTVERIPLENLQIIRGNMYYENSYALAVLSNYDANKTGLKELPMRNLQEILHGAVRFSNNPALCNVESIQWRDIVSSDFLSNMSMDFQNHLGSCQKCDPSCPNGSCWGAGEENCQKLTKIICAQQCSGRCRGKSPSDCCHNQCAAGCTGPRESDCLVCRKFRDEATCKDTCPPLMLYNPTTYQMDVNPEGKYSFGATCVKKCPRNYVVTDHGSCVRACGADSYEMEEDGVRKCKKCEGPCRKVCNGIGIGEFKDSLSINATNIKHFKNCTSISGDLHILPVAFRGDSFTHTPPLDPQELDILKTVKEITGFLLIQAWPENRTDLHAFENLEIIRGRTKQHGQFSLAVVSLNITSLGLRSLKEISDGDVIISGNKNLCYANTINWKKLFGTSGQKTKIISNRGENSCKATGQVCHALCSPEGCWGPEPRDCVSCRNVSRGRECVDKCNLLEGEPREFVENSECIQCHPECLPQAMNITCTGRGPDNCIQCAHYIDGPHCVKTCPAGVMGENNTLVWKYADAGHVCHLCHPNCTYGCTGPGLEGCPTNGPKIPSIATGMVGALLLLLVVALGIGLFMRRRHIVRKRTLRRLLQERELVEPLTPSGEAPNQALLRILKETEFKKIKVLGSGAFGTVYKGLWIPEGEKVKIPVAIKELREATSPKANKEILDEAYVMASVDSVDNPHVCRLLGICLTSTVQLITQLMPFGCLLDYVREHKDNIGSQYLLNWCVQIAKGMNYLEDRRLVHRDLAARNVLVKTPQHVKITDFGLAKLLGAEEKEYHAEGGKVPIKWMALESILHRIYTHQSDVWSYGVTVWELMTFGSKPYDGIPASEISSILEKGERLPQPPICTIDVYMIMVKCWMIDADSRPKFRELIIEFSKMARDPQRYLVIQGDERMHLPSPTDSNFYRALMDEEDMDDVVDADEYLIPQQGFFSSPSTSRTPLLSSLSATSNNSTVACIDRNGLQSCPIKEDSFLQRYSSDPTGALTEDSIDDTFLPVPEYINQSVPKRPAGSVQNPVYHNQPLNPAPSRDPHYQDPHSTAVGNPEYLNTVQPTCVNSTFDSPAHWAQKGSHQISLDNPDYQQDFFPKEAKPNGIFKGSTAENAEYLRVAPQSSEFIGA
EGFR (A767_dupASV) expressing Ba/F3 stable cell line, sequence (P00533 with tags, fused parts or gaps DUP767-769): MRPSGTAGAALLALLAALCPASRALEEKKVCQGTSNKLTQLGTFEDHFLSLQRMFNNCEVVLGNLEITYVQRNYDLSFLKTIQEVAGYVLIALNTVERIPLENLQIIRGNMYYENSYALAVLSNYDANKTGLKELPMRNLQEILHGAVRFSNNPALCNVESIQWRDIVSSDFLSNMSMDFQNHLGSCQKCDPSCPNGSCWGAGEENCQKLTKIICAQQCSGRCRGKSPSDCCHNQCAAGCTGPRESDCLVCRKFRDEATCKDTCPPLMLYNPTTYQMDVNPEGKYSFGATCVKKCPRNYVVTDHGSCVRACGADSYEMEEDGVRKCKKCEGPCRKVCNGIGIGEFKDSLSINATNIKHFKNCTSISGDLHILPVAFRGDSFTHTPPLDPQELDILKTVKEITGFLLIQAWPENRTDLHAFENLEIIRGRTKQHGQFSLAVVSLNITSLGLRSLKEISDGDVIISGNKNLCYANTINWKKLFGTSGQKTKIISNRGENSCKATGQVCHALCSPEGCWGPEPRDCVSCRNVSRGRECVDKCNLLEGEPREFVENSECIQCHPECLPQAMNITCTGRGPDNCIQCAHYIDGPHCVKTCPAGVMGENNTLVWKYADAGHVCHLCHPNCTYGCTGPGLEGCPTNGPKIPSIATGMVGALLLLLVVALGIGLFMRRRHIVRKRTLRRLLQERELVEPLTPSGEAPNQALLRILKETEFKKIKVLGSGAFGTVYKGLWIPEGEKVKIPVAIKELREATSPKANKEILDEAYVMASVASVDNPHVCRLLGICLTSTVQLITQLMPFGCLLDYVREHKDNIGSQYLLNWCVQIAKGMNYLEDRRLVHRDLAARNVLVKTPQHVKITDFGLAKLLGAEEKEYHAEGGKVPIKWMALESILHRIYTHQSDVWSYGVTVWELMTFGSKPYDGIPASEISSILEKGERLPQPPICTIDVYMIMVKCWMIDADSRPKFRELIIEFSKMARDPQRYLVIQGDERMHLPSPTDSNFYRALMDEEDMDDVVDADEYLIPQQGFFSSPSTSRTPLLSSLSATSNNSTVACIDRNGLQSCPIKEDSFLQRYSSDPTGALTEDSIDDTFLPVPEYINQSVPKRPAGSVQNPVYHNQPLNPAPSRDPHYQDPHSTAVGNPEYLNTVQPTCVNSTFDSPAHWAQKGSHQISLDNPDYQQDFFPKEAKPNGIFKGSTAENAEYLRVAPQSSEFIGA

As to `C=CC(=O)Nc1ccc(F)c(Nc2nc(Nc3cnn(C)c3)ncc2C(=O)N(C)c2ccccc2)c1` [Compound 49, 4-((5-acrylamido-2-fluorophenyl)amino)-N-methyl-2-((1-methyl-1H-pyrazol-4-yl)amino)-N-phenylpyrimidine-5-carboxamide], the GI50 in assay [1] came out at 8620 nM; in assay [2] it was 3290 nM. Besides, in the assay on A431 cells, the IC50 (as a rule, the midpoint of a concentration-inhibition curve) is greater than 10 µM.

Regarding `C=CC(=O)Nc1ccc(F)c(Nc2nc(Nc3cnn(C)c3)ncc2-c2ccc(NC(C)=O)cc2)c1` [Compound 58, N-(3-((5-(4-acetamidophenyl)-2-((1-methyl-1H-pyrazol-4-yl)amino)pyrimidin-4-yl)amino)-4-fluorophenyl)acrylamide], the GI50 in assay [1] was determined as 2890 nM; in assay [2] it was 2660 nM. Besides, the IC50 with A431 cells was greater than 10 µM.

For `C=CC(=O)Nc1ccc(F)c(Nc2nc(Nc3cnn(C)c3)ncc2-c2ccc(C(=O)NC)cc2)c1` [Compound 64, 4-(4-((5-acrylamido-2-fluorophenyl)amino)-2-((1-methyl-1H-pyrazol-4-yl)amino)pyrimidin-5-yl)-N-methylbenzamide], the values for the GI50 in assay [1] and in assay [2] were 7870 nM and 3000 nM, respectively. Moreover, the IC50 in the assay on A431 cells was greater than 10 µM.

`C=CC(=O)Nc1ccc(F)c(Nc2nc(Nc3cnn(C)c3)ncc2-c2ccccc2C(F)(F)F)c1` [Compound 65, N-(4-fluoro-3-((2-((1-methyl-1H-pyrazol-4-yl)amino)-5-(2-(trifluoromethyl)phenyl)pyrimidin-4-yl)amino)phenyl)acrylamide]: the figures for the GI50 in assay [1] and in assay [2] were 1000 nM and 2740 nM, respectively. In the assay with A431 cells, the IC50 amounted to 1.94 µM.

Consider `C=CC(=O)Nc1ccc(F)c(Nc2nc(Nc3cnn(C)c3)ncc2-c2ccnc(C)c2)c1` [Compound 80, N-(4-fluoro-3-((2-((1-methyl-1H-pyrazol-4-yl)amino)-5-(2-methylpyridin-4-yl)pyrimidin-4-yl)amino)phenyl)acrylamide], for which the GI50 in assay [1] was determined as 256 nM; in assay [2], 751 nM. Further, in the assay on A431 cells, the IC50 is 0.082 µM.

For the compound `C=CC(=O)Nc1ccc(F)c(Nc2nc(Nc3cnn(C)c3)ncc2-c2cn[nH]c2)c1` [Compound 98, N-(4-fluoro-3-((2-((1-methyl-1H-pyrazol-4-yl)amino)-5-(1H-pyrazol-4-yl)pyrimidin-4-yl)amino)phenyl)acrylamide], the GI50 was found to be 671 nM in assay [1] and 942 nM in assay [2]. In addition, the IC50 with A431 cells is greater than 10 µM.

As to `C=CC(=O)Nc1ccc(F)c(Nc2nc(Nc3ccn(C)n3)ncc2-c2ccc(C(F)(F)F)cc2)c1` [Compound 113, N-(4-fluoro-3-((2-((1-methyl-1H-pyrazol-3-yl)amino)-5-(4-(trifluoromethyl)phenyl)pyrimidin-4-yl)amino)phenyl)acrylamide trifluoroacetate], the values for the GI50 in assay [1] and in assay [2] were 317 nM and 263 nM, respectively. Also, the IC50 in the assay with A431 cells was 0.201 µM.

Consider `C=CC(=O)Nc1ccc(F)c(Nc2nc(Nc3cnn(C)c3)ncc2C2=CCN(C)CC2)c1` [Compound 114, N-(4-fluoro-3-((5-(1-methyl-1,2,3,6-tetrahydropyridin-4-yl)-2-((1-methyl-1H-pyrazol-4-yl)amino)pyrimidin-4-yl)amino)phenyl)acrylamide], for which the values for the GI50 in assay [1] and in assay [2] were 1840 nM and 964 nM, respectively. In the assay with A431 cells, the IC50 is 0.816 µM.

`C=CC(=O)Nc1ccc(N(C)C)c(Nc2nc(Nc3cnn(C)c3)ncc2-c2ccc(C(F)(F)F)cc2)c1` [Compound 119, N-(4-(dimethylamino)-3-((2-((1-methyl-1H-pyrazol-4-yl)amino)-5-(4-(trifluoromethyl)phenyl)pyrimidin-4-yl)amino)phenyl)acrylamide trifluoroacetate]: the GI50 in assay [1] and in assay [2] was greater than 10000 nM each time. The IC50 in the assay on A431 cells is greater than 10 µM.

Take `C=CC(=O)Nc1ccc(F)c(Nc2nc(Nc3cnn(C)c3)ncc2C2CC2)c1` [Compound 120, N-(3-((5-cyclopropyl-2-((1-methyl-1H-pyrazol-4-yl)amino)pyrimidin-4-yl)amino)-4-fluorophenyl)acrylamide trifluoroacetate]: the values for the GI50 in assay [1] and in assay [2] were 967 nM and 875 nM, respectively. In addition, in the assay with A431 cells, the IC50 came to 3.8 µM.

With `C=CC(=O)Nc1ccc(F)c(Nc2nc(Nc3ccccc3)ncc2-c2ccc(C(F)(F)F)cc2)c1` [Compound 121, N-(4-fluoro-3-((2-(phenylamino)-5-(4-(trifluoromethyl)phenyl)pyrimidin-4-yl)amino)phenyl)acrylamide], the GI50 is 2870 nM in assay [1] and greater than 10000 nM in assay [2]. In the assay on A431 cells, the IC50 was determined as 1.28 µM.

On to `C=CC(=O)Nc1ccc(F)c(Nc2nc(Nc3ccc(F)cc3)ncc2-c2ccc(C(F)(F)F)cc2)c1` [Compound 122, N-(4-fluoro-3-((2-((4-fluorophenyl)amino)-5-(4-(trifluoromethyl)phenyl)pyrimidin-4-yl)amino)phenyl)acrylamide trifluoroacetate], for which the GI50 was 1990 nM in assay [1] and greater than 10000 nM in assay [2]. Further, the IC50 with A431 cells was 3.69 µM.

On to `C=CC(=O)Nc1ccc(F)c(Nc2nc(Nc3cnn(C)c3)ncc2C2=CCOCC2)c1` [Compound 124, N-(3-((5-(3,6-dihydro-2H-pyran-4-yl)-2-((1-methyl-1H-pyrazol-4-yl)amino)pyrimidin-4-yl)amino)-4-fluorophenyl)acrylamide], for which the values for the GI50 in assay [1] and in assay [2] were 328 nM and 284 nM, respectively. Besides, the IC50 in the assay with A431 cells was found to be 1.53 µM.

As for `C=CC(=O)Nc1ccc(F)c(Nc2nc(Nc3cnn(C)c3)ncc2-c2cccc(CN(C)C)c2)c1` [Compound 134, N-(3-((5-(3-((dimethylamino)methyl)phenyl)-2-((1-methyl-1H-pyrazol-4-yl)amino)pyrimidin-4-yl)amino)-4-fluorophenyl)acrylamide], the GI50 in assay [1] is greater than 10000 nM; in assay [2], 8410 nM. For the same compound, the IC50 in the assay with A431 cells worked out at 3.28 µM.

Regarding `C=CC(=O)Nc1ccc(F)c(Nc2nc(Nc3cnn(C)c3)ncc2-c2ccc(S(N)(=O)=O)cc2)c1` [Compound 138, N-(4-fluoro-3-((2-((1-methyl-1H-pyrazol-4-yl)amino)-5-(4-sulfamoylphenyl)pyrimidin-4-yl)amino)phenyl)acrylamide], the results for the GI50 in assay [1] and in assay [2] were 3140 nM and 2880 nM, respectively. The IC50 in the assay on A431 cells is greater than 10 µM.

Turning to `C=CC(=O)Nc1ccc(F)c(Nc2nc(Nc3cnn(C)c3)ncc2-c2cccc(OC(F)F)c2)c1` [Compound 143, N-(3-((5-(3-(difluoromethoxy)phenyl)-2-((1-methyl-1H-pyrazol-4-yl)amino)pyrimidin-4-yl)amino)-4-fluorophenyl)acrylamide trifluoroacetate], the GI50 in assay [1] is 276 nM; in assay [2] it was 300 nM. In addition, the IC50 in the assay with A431 cells stood at 0.235 µM.

In the case of `C=CC(=O)Nc1ccc(F)c(Nc2nc(Nc3cnn(C)c3)ncc2-c2cccc(N(C)C)c2)c1` [Compound 145, N-(3-((5-(3-(dimethylamino)phenyl)-2-((1-methyl-1H-pyrazol-4-yl)amino)pyrimidin-4-yl)amino)-4-fluorophenyl)acrylamide], the GI50 was 911 nM in assay [1] and 2020 nM in assay [2]. Moreover, the IC50 in the assay on A431 cells came out at 3.98 µM.

Turning to `C=CC(=O)Nc1ccc(F)c(Nc2nc(Nc3cnn(C)c3)cnc2Cl)c1` [Compound 153, N-(3-((3-chloro-6-((1-methyl-1H-pyrazol-4-yl)amino)pyrazin-2-yl)amino)-4-fluorophenyl)acrylamide], the GI50 in assay [1] and in assay [2] was greater than 10000 nM each time. For the same compound, the IC50 in the assay with A431 cells is greater than 10 µM.

For the compound `C=CC(=O)Nc1cccc(Oc2nc(Nc3cnn(C)c3)cnc2Cl)c1` [Compound 154, N-(3-((3-chloro-6-((1-methyl-1H-pyrazol-4-yl)amino)pyrazin-2-yl)oxy)phenyl)acrylamide], the GI50 in assay [1] and in assay [2] was greater than 10000 nM each time. Further, in the assay on A431 cells, the IC50 was greater than 10 µM.

As for `C=CC(=O)Nc1ccc(F)c(Nc2nc(Nc3cnn(C)c3)nnc2Cl)c1` [Compound 155, N-(3-((6-chloro-3-((1-methyl-1H-pyrazol-4-yl)amino)-1,2,4-triazin-5-yl)amino)-4-fluorophenyl)acrylamide], the GI50 in assay [1] is 1410 nM; in assay [2], 2480 nM. For the same compound, the IC50 with A431 cells was 6.46 µM.

For the compound `C=CC(=O)Nc1ccc(C(=O)Nc2ccccc2)c(Nc2nc(Nc3cnn(C)c3)ncc2Cl)c1` [Compound 163, 2-({5-chloro-2-[(1-methyl-1H-pyrazol-4-yl)amino]pyrimidin-4-yl}amino)-N-phenyl-4-(prop-2-enamido) benzamide], the values for the GI50 in assay [1] and in assay [2] were greater than 10000 nM and 9440 nM, respectively. Further, the IC50 in the assay with A431 cells came to 8.25 µM.

Turning to `C=CC(=O)Nc1ccc(C(F)(F)F)c(Oc2nc(Nc3cnn(C)c3)ncc2Cl)c1` [Compound 169, N-(3-((5-chloro-2-((1-methyl-1H-pyrazol-4-yl)amino)pyrimidin-4-yl)oxy)-4-(trifluoromethyl)phenyl)acrylamide], the GI50 in assay [1] was greater than 10000 nM; in assay [2], 8950 nM. For the same compound, the IC50 with A431 cells was 9.69 µM.

Source of the values: patent US12686673B2 (Blueprint Medicines Corporation, priority 2020, dated 2026).
